Experimental data published in patent US12052991B2, “Substituted pyridinyloxybenzenes and salts thereof and use thereof as herbicidal agents” (Bayer Aktiengesellschaft, priority 2018, dated 2024).

Columns and labels:
Format in all cases: in vivo
[1] = system: Amaranthus retroflexus (AMARE); assay: Herbicidal pre-emergence action, test C (Table C6); conditions: visual scoring after about 3 weeks, 100% = plants have died, 0% = like control plants
How it was run: (§1)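 First, weed seeds were sown in sandy loam and covered with soil. Next, aqueous WP/EC preparations plus 0.5% additive were applied to the surface at 600 L/ha (1280 or 320 g/ha). Finally, plants grew in a greenhouse ~3 weeks before visual % scoring against controls.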

[2] = system: Echinochloa crus-galli (ECHCG); assay: Herbicidal pre-emergence action, test C (Table C1); conditions: visual scoring after about 3 weeks, 100% = plants have died, 0% = like control plants
How it was run: as §1

Setaria viridis (SETVI) [3] = assay: Herbicidal pre-emergence action, test C (Table C4); conditions: visual scoring after about 3 weeks, 100% = plants have died, 0% = like control plants
How it was run: as §1

[4] = system: harmful plants ABUTH, AMARE, ECHCG, LOLRI, MATIN, POAAN, SETVI, STEME, ALOMY, DIGSA, KCHSC and VERPE; assay: Herbicidal pre-emergence action (test C), summary of Tables C1-C12; conditions: application rate of 1280 or 320 g of active ingredient per hectare; summary in words
How it was run: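 Visual % damage versus untreated plants (0% = like control, 100% = died) was scored after about 3 weeks in the greenhouse. Before emergence, seeds sown in sandy loam got a soil-surface spray of compound as WP or EC plus 0.5% additive, using 600 L/ha water at rates of 1280 or 320 g/ha.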

[5] = system: Echinochloa crus-galli (ECHCG); assay: Herbicidal post-emergence action (Table B1); conditions: rated visually after about 3 weeks, 100% = plants have died, 0% = like control plants
How it was run: (§2)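 Application rates of 1280 or 320 g/ha were tested post-emergence on one-leaf-stage greenhouse plants in sandy loam, using WP or EC formulations with 0.5% additive at 600 L/ha. Activity was rated visually against untreated plants about 3 weeks later.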

Stellaria media (STEME) [6] = assay: Herbicidal pre-emergence action, test C (Table C8); conditions: visual scoring after about 3 weeks, 100% = plants have died, 0% = like control plants
How it was run: as §1

Setaria viridis (SETVI) [7] = assay: Herbicidal post-emergence action (Table B4); conditions: rated visually after about 3 weeks, 100% = plants have died, 0% = like control plants
How it was run: as §2

[8] = system: Abutilon theophrasti (ABUTH); assay: Herbicidal pre-emergence action, test C (Table C5); conditions: visual scoring after about 3 weeks, 100% = plants have died, 0% = like control plants
How it was run: as §1

Poa annua (POAAN) [9] = assay: Herbicidal pre-emergence action, test C (Table C3); conditions: visual scoring after about 3 weeks, 100% = plants have died, 0% = like control plants
How it was run: as §1

Lolium rigidum (LOLRI) [10] = assay: Herbicidal pre-emergence action, test C (Table C2); conditions: visual scoring after about 3 weeks, 100% = plants have died, 0% = like control plants
How it was run: as §1

Lolium rigidum (LOLRI) [11] = assay: Herbicidal post-emergence action (Table B2); conditions: rated visually after about 3 weeks, 100% = plants have died, 0% = like control plants
How it was run: as §2

Poa annua (POAAN) [12] = assay: Herbicidal post-emergence action (Table B3); conditions: rated visually after about 3 weeks, 100% = plants have died, 0% = like control plants
How it was run: as §2

Stellaria media (STEME) [13] = assay: Herbicidal post-emergence action (Table B8); conditions: visual rating about 3 weeks after treatment, 100% = plants have died, 0% = like control plants
How it was run: as §2

[14] = system: Abutilon theophrasti (ABUTH); assay: Herbicidal post-emergence action (Table B5); conditions: rated visually after about 3 weeks, 100% = plants have died, 0% = like control plants
How it was run: as §2

[15] = system: Amaranthus retroflexus (AMARE); assay: Herbicidal post-emergence action (Table B6); conditions: visual rating about 3 weeks after treatment, 100% = plants have died, 0% = like control plants
How it was run: as §2

[16] = system: harmful plants ABUTH, AMARE, ECHCG, LOLRI, MATIN, POAAN, SETVI, STEME, ALOMY, DIGSA, KCHSC and VERPE; assay: Herbicidal post-emergence action, summary of Tables B1-B12; conditions: application rate of 1280 or 320 g of active ingredient per hectare; summary in words
How it was run: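 Activity scored by eye roughly 3 weeks post-treatment against untreated plants, from 0% (no effect) to 100% (plants dead). Application rates were 1280 or 320 g/ha, as aqueous WP/EC spray plus 0.5% additive at 600 L/ha, onto one-leaf-stage weeds grown 2–3 weeks in sandy loam.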

Fc1cc(Cl)cnc1Oc1cccc(F)c1-c1cc(C(F)F)no1 [Example 1-19]
very good herbicidal activity: herbicidal activity against the harmful plants of Tables C1-C12 in pre-emergence treatment [4] | herbicidal activity against the harmful plants of Tables B1-B12 in post-emergence treatment [16]
100%: Pre-emergence action against Amaranthus retroflexus (AMARE) ([1]; dosage 320 g/ha) | Pre-emergence action against Amaranthus retroflexus (AMARE) ([1]; dosage 1280 g/ha) | Pre-emergence action against Echinochloa crus-galli (ECHCG) ([2]; dosage 320 g/ha) | Pre-emergence action against Echinochloa crus-galli (ECHCG) ([2]; dosage 1280 g/ha) | Pre-emergence action against Setaria viridis (SETVI) (Setaria viridis (SETVI) [3]; dosage 320 g/ha) | Pre-emergence action against Setaria viridis (SETVI) (Setaria viridis (SETVI) [3]; dosage 1280 g/ha) | Post-emergence action against Echinochloa crus-galli (ECHCG) ([5]; 320 g/ha) | Post-emergence action against Echinochloa crus-galli (ECHCG) ([5]; 1280 g/ha) | Pre-emergence action against Stellaria media (STEME) (Stellaria media (STEME) [6]; dosage 320 g/ha) | Pre-emergence action against Stellaria media (STEME) (Stellaria media (STEME) [6]; dosage 1280 g/ha) | Post-emergence action against Setaria viridis (SETVI) (Setaria viridis (SETVI) [7]; 320 g/ha) | Post-emergence action against Setaria viridis (SETVI) (Setaria viridis (SETVI) [7]; 1280 g/ha) | Pre-emergence action against Abutilon theophrasti (ABUTH) ([8]; dosage 320 g/ha) | Pre-emergence action against Abutilon theophrasti (ABUTH) ([8]; dosage 1280 g/ha) | Pre-emergence action against Poa annua (POAAN) (Poa annua (POAAN) [9]; dosage 320 g/ha) | Pre-emergence action against Poa annua (POAAN) (Poa annua (POAAN) [9]; dosage 1280 g/ha) | Pre-emergence action against Lolium rigidum (LOLRI) (Lolium rigidum (LOLRI) [10]; dosage 320 g/ha) | Pre-emergence action against Lolium rigidum (LOLRI) (Lolium rigidum (LOLRI) [10]; dosage 1280 g/ha) | Post-emergence action against Lolium rigidum (LOLRI) (Lolium rigidum (LOLRI) [11]; 320 g/ha) | Post-emergence action against Lolium rigidum (LOLRI) (Lolium rigidum (LOLRI) [11]; 1280 g/ha) | Post-emergence action against Poa annua (POAAN) (Poa annua (POAAN) [12]; 320 g/ha) | Post-emergence action against Poa annua (POAAN) (Poa annua (POAAN) [12]; 1280 g/ha) | Post-emergence action against Stellaria media (STEME) (Stellaria media (STEME) [13]; dosage 320 g/ha) | Post-emergence action against Stellaria media (STEME) (Stellaria media (STEME) [13]; dosage 1280 g/ha) | Post-emergence action against Abutilon theophrasti (ABUTH) ([14]; 320 g/ha) | Post-emergence action against Abutilon theophrasti (ABUTH) ([14]; 1280 g/ha) | Post-emergence action against Amaranthus retroflexus (AMARE) ([15]; dosage 320 g/ha) | Post-emergence action against Amaranthus retroflexus (AMARE) ([15]; dosage 1280 g/ha)
